Reference: patent US7968584B2, “Substituted arylpyrazoles” (Pfizer Inc., priority 2005, dated 2011)

The molecules below were run on Ctenocephalides felis (assay: flea membrane feed test). Details: Ctenocephalides felis; in vitro, adult cat fleas fed 2 hours through parafilm membrane on citrated dog blood containing compound; percentage killed recorded after overnight storage; dose responses n=5; read-out: Flea feed ED80 results.
Method: The flea membrane feed test is used to measure the biological activities of the compounds claimed. The assay involves in vitro testing against Ctenocephalides felis conducted according to the following general procedure.
Fleas are cultured in vitro using dog blood. 25-30 adult Ctenocephalides felis (cat flea) were collected and placed in a test chamber (50 ml polystyrene tube with fine nylon mesh sealing the end). Citrated dog blood was prepared by adding aqueous sodium citrate solution (10 ml, 20% w/v, 20 g sodium citrate in 100 ml water) to dog blood (250 ml). Test compounds were dissolved in dimethylsulfoxide to give a working stock solution of 4 mg/ml. The stock solution (12.5 μl) was added to citrated dog blood (5 ml) to give an initial test concentration of 10 μg/ml. For testing at 30 µg/ml, working stock solutions of 12 mg/ml were prepared.
Citrated dog blood containing the test compound (5 ml, 100 μg/ml) was placed into a plastic Petri dish lid, which was kept at 37° C. on a heated pad. Parafilm was stretched over the open top to form a tight membrane for the fleas to feed through. The test chamber containing the fleas was placed carefully onto the parafilm membrane and the fleas commenced feeding.
The fleas were allowed to feed for 2 hours and the test chambers were then removed and stored overnight at room temperature.
The fleas were observed and the percentage of fleas killed recorded. Compounds were initially tested at 100 μg/ml, wherefrom relevant dose responses (100, 30, 10, 3, 1, 0.3, 0.1 μg/ml) were conducted and repeated n=5. Data was plotted to generate ED80, ED90 & ED95 values.
`CS(=O)(=O)C1(c2c(C#N)nn(-c3c(Cl)cc(S(F)(F)(F)(F)F)cc3Cl)c2N)CC1` [Example 1, 5-amino-1-[2,6-dichloro-4-pentafluorothiophenyl]-4-[1-(methylsulfonyl)cyclopropyl]-1H-pyrazole-3-carbonitrile] showed an EC80 of at most 1 µg/mL.
`N#Cc1nn(-c2c(Cl)cc(C(F)(F)F)cc2Cl)c(N)c1C1(C(N)=O)CC1` [Example 2, 1-{5-amino-3-cyano-1-[2,6-dichloro-4-(trifluoromethyl)phenyl]-1H-pyrazol-4-yl}cyclopropanecarboxamide] gave an EC80 of at most 1 µg/mL.
With `N#Cc1nn(-c2c(Cl)cc(S(F)(F)(F)(F)F)cc2Cl)c(NCCF)c1C1(C(N)=O)CC1` [Example 16, 1-{3-cyano-1-[2,6-dichloro-4-pentafluorothiophenyl]-5-[(2-fluoroethyl)amino]-1H-pyrazol-4-yl}cyclopropanecarboxamide] the EC80 was at most 1 µg/mL.
Work on `N#Cc1nn(-c2c(Cl)cc(S(F)(F)(F)(F)F)cc2Cl)c(N)c1C1(C(N)=O)CC1(Cl)Cl` (stereo not shown) [Example 18, 1-{5-amino-3-cyano-1-[2,6-dichloro-4-pentafluorothiophenyl]-1H-pyrazol-4-yl}-2,2-dichlorocyclopropanecarboxamide] yielded an EC80 of at most 1 µg/mL.
With `N#Cc1nn(-c2c(Cl)cc(S(F)(F)(F)(F)F)cc2Cl)c(NCC2CC2)c1C1(C(=O)NCc2ccncc2)CC1` [Example 19, 1-{3-cyano-5-[(cyclopropylmethyl)amino]-1-[2,6-dichloro-4-pentafluorothiophenyl]-1H-pyrazol-4-yl}-N-(pyridin-4-ylmethyl)cyclopropanecarboxamide] the EC80 was at most 1 µg/mL.
`CC(C)OC(=O)Nc1c(C2(C(N)=O)CC2)c(C#N)nn1-c1c(Cl)cc(S(F)(F)(F)(F)F)cc1Cl` [Example 20, isopropyl {4-[1-(aminocarbonyl)cyclopropyl]-3-cyano-1-[2,6-dichloro-4-pentafluorothiophenyl]-1H-pyrazol-5-yl}carbamate] was tested, and the EC80 was at most 1 µg/mL.
`N#Cc1nn(-c2c(Cl)cc(S(F)(F)(F)(F)F)cc2Cl)c(NC(=O)OCC2(CF)CC2)c1C1(C(N)=O)CC1` [Example 27, [1-(fluoromethyl)cyclopropyl]methyl {4-[1-(aminocarbonyl)cyclopropyl]-3-cyano-1-[2,6-dichloro-4-pentafluorothiophenyl]-1H-pyrazol-5-yl}carbamate] gave an EC80 of at most 1 µg/mL.
Work on `CCOC(=O)Nc1c(C2(C(N)=O)CC2)c(C#N)nn1-c1c(Cl)cc(OC(F)(F)F)cc1Cl` [Example 37, ethyl {4-[1-(aminocarbonyl)cyclopropyl]-3-cyano-1-[2,6-dichloro-4-(trifluoromethoxy)phenyl]-1H-pyrazol-5-yl}carbamate] yielded an EC80 of at most 1 µg/mL.
Molecule `N#Cc1nn(-c2c(Cl)cc(S(F)(F)(F)(F)F)cc2Cl)c(Cl)c1C1(C(N)=O)CC1` [Example 86, 1-{5-chloro-3-cyano-1-[2,6-dichloro-4-pentafluorothiophenyl]-1H-pyrazol-4-yl}cyclopropanecarboxamide] has an EC80 of at most 1 µg/mL.

Same assay, conditions: in vitro, adult cat fleas fed 2 hours through parafilm membrane on citrated dog blood containing compound; percentage killed recorded after overnight storage; dose responses n=5
`N#Cc1nn(-c2c(Cl)cc(S(F)(F)(F)(F)F)cc2Cl)c(N)c1C1(C#N)CC1` [Example 11, 5-amino-4-(1-cyanocyclopropyl)-1-[2,6-dichloro-4-pentafluorothiophenyl]-1H-pyrazole-3-carbonitrile] was tested, and the “Flea feed ED80 results” value was “≦1 μg/ml”.
`N#Cc1nn(-c2c(Cl)cc(S(F)(F)(F)(F)F)cc2Cl)c(NCCC(N)=O)c1C1(C(N)=O)CC1` [Example 32, N˜3˜-{4-[1-(aminocarbonyl)cyclopropyl]-3-cyano-1-[2,6-dichloro-4-pentafluorothiophenyl]-1H-pyrazol-5-yl}-beta-alaninamide] was tested, and the “Flea feed ED80 results” value was “≦1 μg/ml”.
For `N#Cc1nn(-c2c(Cl)cc(S(F)(F)(F)(F)F)cc2Cl)c(NCC2CC2)c1C1(C(=O)NCc2ccccn2)CC1` [Example 45, 1-{3-cyano-5-[(cyclopropylmethyl)amino]-1-[2,6-dichloro-4-pentafluorothiophenyl]-1H-pyrazol-4-yl}-N-(pyridin-2-ylmethyl)cyclopropanecarboxamide], the “Flea feed ED80 results” value was “≦1 μg/ml”.
`N#Cc1nn(-c2c(Cl)cc(S(F)(F)(F)(F)F)cc2Cl)c(CNC(=O)OCC2CC2)c1C1(C(N)=O)CC1` [Example 101, cyclopropylmethyl {4-[1-(aminocarbonyl)cyclopropyl]-3-cyano-1-[2,6-dichloro-4-pentafluorothiophenyl]-1H-pyrazol-5-yl}methylcarbamate] was tested, and the “Flea feed ED80 results” value was “≦1 μg/ml”.
